{"source": "patent US10278931B2", "about": "“Composition for treatment of inflammatory bowel disease and atopic dermatitis” (INNOPHARMASCREEN INC., priority 2015, dated 2019)", "key": {"TSLP mRNA": {"system": "TSLP mRNA", "assay": "TSLP mRNA expression (RT-PCR) in HMC-1 cells", "assay_type": "cell-based, human", "experimental": "(§1) (1) Cell culture: A human mast cell line (HMC-1) was cultured in an IMDM supplemented with 10% FBS at 37° C. and 5% CO2. Candidate materials were dissolved in DMSO, and then filtered using a 0.22 μm filter. The resulting candidate materials were diluted with DMSO and the HMC-1 cells were treated therewith.\n(5) Reverse transcription-polymerase chain reaction (RT-PCR) quantitative real time PCR: Total RNA was isolated from cells and tissues, and cDNA was synthesized using a reverse transcriptase and was then reacted with cytokine primers to be analyzed, followed by PCR and real-time PCR. The RT-PCR products were subjected to electrophoresis using 1.5% agarose gel for analysis."}, "[1]": {"system": "balb/c mice with DNCB-induced atopic dermatitis", "assay": "DNCB-induced atopic dermatitis model", "assay_type": "in vivo", "conditions": "DNCB-applied balb/c mice, concentration of 0.011 μM (so in the source)"}, "HMC-1 cells": {"system": "HMC-1 cells", "assay": "Cytotoxicity (MTT-assay) in HMC-1 cells", "assay_type": "cell-based, human", "experimental": "as §1\n[…] After culturing, the medium was replaced by a fresh medium, 5 mg/ml of an MTT solution was then added thereto, and the mast cells were incubated at 37° C. for 4 hours. 250 DMSO was added to the mast cells, MTT formazan was extracted therefrom, and absorbance of each well was measured at 540 nm using an ELISA reader."}, "caspase-1 [2]": {"molecular_target": "T1, caspase-1 (Homo sapiens, UniProt P29466)", "T1 construct": "a caspase-1 assay was conducted using cell extracts; endogenous in cells; host or cells: HMC-1 (human mast cells)", "T1 sequence (P29466 120-297 limits assumed)": "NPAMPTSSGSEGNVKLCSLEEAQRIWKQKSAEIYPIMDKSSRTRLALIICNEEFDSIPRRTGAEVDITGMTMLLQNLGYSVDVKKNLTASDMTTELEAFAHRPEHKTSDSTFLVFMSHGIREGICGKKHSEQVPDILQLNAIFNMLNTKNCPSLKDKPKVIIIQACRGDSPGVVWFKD", "T1 sequence (P29466 317-404 limits assumed)": "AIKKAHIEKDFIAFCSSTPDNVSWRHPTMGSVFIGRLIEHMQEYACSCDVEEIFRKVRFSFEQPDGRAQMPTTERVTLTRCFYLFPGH", "assay": "Caspase-1 assay using HMC-1 cell extracts", "assay_type": "cell-based"}, "[3]": {"molecular_target": "T2, human recombinant caspase-1 (Homo sapiens, UniProt P29466)", "T2 sequence (P29466 120-404)": "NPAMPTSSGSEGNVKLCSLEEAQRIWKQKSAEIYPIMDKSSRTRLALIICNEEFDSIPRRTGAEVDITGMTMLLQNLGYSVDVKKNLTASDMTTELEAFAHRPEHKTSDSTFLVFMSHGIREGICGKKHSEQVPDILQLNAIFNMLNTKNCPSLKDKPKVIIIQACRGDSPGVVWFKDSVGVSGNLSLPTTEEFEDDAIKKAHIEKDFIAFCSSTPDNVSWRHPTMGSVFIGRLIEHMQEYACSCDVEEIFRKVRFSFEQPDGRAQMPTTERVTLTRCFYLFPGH", "assay": "Recombinant caspase-1 activity assay (kit)", "assay_type": "biochemical", "conditions": "caspase-1 assay kit", "experimental": "(§2) (4) Caspase-1 assay: Recombinant caspase-1 and a drug were allowed to react, and then activity measurement was performed using a caspase-1 assay kit (R&D Systems Inc., Minneapolis, Minn., USA).\nRecombinant caspase-1 and a drug were allowed to react, and then activity was measured using a caspase-1 assay kit (R&D Systems Inc., Minneapolis, Minn., USA)."}, "caspase-1 [4]": {"molecular_target": "T3, caspase-1 (Mus musculus, UniProt P29452)", "T3 construct": "using the dorsal skin of DNCB-applied balb/c mice; from tissue; host or cells: dorsal skin of BALB/c mice", "T3 sequence (P29452 119-402)": "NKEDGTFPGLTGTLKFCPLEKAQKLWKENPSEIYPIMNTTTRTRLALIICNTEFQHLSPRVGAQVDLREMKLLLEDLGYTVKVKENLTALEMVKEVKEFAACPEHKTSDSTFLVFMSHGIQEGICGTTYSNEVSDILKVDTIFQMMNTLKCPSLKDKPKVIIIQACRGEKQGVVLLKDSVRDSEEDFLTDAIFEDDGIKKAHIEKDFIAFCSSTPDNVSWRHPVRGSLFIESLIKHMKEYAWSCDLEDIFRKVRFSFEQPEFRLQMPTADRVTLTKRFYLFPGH", "assay": "Caspase-1 assay in dorsal skin of DNCB-applied mice", "assay_type": "in vivo", "conditions": "DNCB-applied balb/c mice, concentration-dependent", "experimental": "as §2\nB. Dermatitis induction: Hairs on the back of each mouse were removed and maintained for 24 hours, and then 150 μl of a 1% 2,4-dinitrochlorobenzene(DNCB) solution (acetone: olive oil=3:1) was applied on the hair-removed site once a week for 3 weeks. After week 3, the DNCB solution was applied on the site twice a week for 3 weeks to induce atopic dermatitis.\nC. Treatment: Mice were divided into 6 groups, and 0.5% DMSO was applied on animals as a control and 200 μl of each of 0.01 μM, 0.1 μM, and 1 μM test material was applied on animals as experimental groups for 3 weeks. 50 μl of 0.1% dexamethasone dissolved in a crude alcohol was applied on animals as a positive control at intervals of 2 days."}}}
{"smiles": "Cl.N=C(N)NC(=N)Nc1ccc(Cl)cc1", "note": "[IPS-07001]", "values": [{"measurement": "TSLP mRNA expression", "setting": "TSLP mRNA", "value": "significantly inhibited"}, {"measurement": "IL-6 level in dorsal skin", "setting": "[1]", "value": "significantly regulated"}, {"measurement": "cytotoxicity (MTT-assay)", "setting": "HMC-1 cells; 10 μM", "value": "exhibited cytotoxicity"}, {"measurement": "cytotoxicity (MTT-assay)", "setting": "HMC-1 cells; up to 1 μM", "value": "no cytotoxicity"}, {"measurement": "caspase-1 activity in HMC-1 cells", "setting": "caspase-1 [2]", "value": "significantly inhibited"}, {"measurement": "recombinant caspase-1 activity", "setting": "[3]", "value": "significantly inhibited"}, {"measurement": "caspase-1 activity in dorsal skin", "setting": "caspase-1 [4]", "value": "significantly inhibited"}]}
